Measured values: ChEMBL document CHEMBL5579851, “Synthesis and antifungal evaluation of novel triazole derivatives bearing a pyrazole-methoxyl moiety” (Eur J Med Chem, 2024)
In brackets after ≈: the same amount, converted by molar mass.

Assays:
Candida albicans [1] = assay: Antifungal activity against Candida albicans SC5314 assessed as inhibition of fungal growth incubated for 48 hrs by CLSI based broth microdilution assay; format: functional
[Candida] auris [2] = Antifungal activity against fluconazole-resistant Candida auris 918 assessed as inhibition of fungal growth incubated for 48 hrs by CLSI based broth microdilution assay; format: functional; conditions: Candidozyma auris
Candida albicans [3] = assay: Antifungal activity against Candida albicans 10231 assessed as inhibition of fungal growth incubated for 48 hrs by CLSI based broth microdilution assay; format: functional
Saccharomyces cerevisiae [4] = assay: Antifungal activity against recombinant Saccharomyces cerevisiae Y2721 overexpressing CpErg11/CpCpr assessed as inhibition of fungal growth incubated for 48 hrs by CLSI based broth microdilution assay; format: functional
Candida albicans [5] = assay: Antifungal activity against Candida albicans SC5314 assessed as inhibition of hyphae formation at 0.625 ug/ml after 3 hrs by inverted microscopic analysis relative to control; format: functional
[6] = target: Lanosterol 14-alpha demethylase (Candida albicans (strain SC5314 / ATCC MYA-2876) (Yeast), UniProt P10613); assay: Inhibition of CYP51 in Candida albicans SC5314 assessed as lanosterol level at 0.0625 ug/ml after 8 hrs by GC-MS analysis (reference value: 5.9 %); design: scale not given: the % may be the effect or the level left; conditions: at 0.0625 µg/mL
Saccharomyces cerevisiae [7] = assay: Antifungal activity against recombinant Saccharomyces cerevisiae Y2300 overexpressing ScErg11 assessed as inhibition of fungal growth incubated for 48 hrs by CLSI based broth microdilution assay; format: functional
Saccharomyces cerevisiae [8] = assay: Antifungal activity against recombinant Saccharomyces cerevisiae Y2767 overexpressing CauErg11 assessed as inhibition of fungal growth incubated for 48 hrs by CLSI based broth microdilution assay; format: functional
[9] = Cytotoxicity against HUVEC cells assessed as cell viability at 128 ug/ml incubated for 24 hrs by CCK-8 assay relative to control; format: toxicity, cell-based; conditions: human, at 128 µg/mL, read-out: Activity
Saccharomyces cerevisiae [10] = assay: Antifungal activity against recombinant Saccharomyces cerevisiae Y2462 overexpressing ScErg11/ScNcp1 assessed as inhibition of fungal growth incubated for 48 hrs by CLSI based broth microdilution assay; format: functional
[Candida] auris [11] = Antifungal activity against fluconazole-resistant Candida auris 919 assessed as inhibition of fungal growth incubated for 48 hrs by CLSI based broth microdilution assay; format: functional; conditions: Candidozyma auris
Candida albicans [12] = assay: Antibiofilm activity against Candida albicans SC5314 assessed as increase in matured biofilm distruption at 64 ug/ml incubated for 24 hrs by XTT assay relative to control; format: functional; conditions: dose 64 µg/ml
Saccharomyces cerevisiae [13] = assay: Antifungal activity against recombinant Saccharomyces cerevisiae Y2711 overexpressing CnErg11 assessed as inhibition of fungal growth incubated for 48 hrs by CLSI based broth microdilution assay; format: functional

Chain of Lanosterol 14-alpha demethylase (P10613 whole entry): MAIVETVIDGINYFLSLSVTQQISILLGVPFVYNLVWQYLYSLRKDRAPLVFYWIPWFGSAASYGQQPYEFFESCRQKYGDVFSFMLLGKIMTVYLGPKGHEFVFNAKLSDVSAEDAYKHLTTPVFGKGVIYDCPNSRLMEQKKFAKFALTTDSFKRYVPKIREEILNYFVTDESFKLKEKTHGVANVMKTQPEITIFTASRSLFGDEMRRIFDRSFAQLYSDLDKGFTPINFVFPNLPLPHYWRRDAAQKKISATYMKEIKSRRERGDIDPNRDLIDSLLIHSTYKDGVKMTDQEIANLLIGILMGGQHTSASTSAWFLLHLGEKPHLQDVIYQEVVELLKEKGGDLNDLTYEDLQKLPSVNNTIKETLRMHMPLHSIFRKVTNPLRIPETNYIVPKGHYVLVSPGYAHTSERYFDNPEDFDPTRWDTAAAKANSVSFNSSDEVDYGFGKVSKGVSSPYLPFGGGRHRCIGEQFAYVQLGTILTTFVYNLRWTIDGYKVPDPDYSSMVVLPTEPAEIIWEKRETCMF

Work on C[C@@H](OCc1ccn(Cc2ccc(Cl)cc2)n1)[C@](O)(Cn1cncn1)c1ccc(F)cc1F yielded an MIC (Candida albicans [1]) of no more than 0.125 µg/mL, an MIC ([Candida] auris [2]) of 8 µg/mL (≈ 16.9 µM) and an MIC (Candida albicans [3]) of no more than 0.125 µg/mL. It also gave an MIC (Saccharomyces cerevisiae [4]) of 0.016 µg/mL, an inhibition at 0.625 µg/mL (Candida albicans [5]) of 100% and an Activity [6] greater than 25%. For the same molecule, the MIC (Saccharomyces cerevisiae [7]) was 0.0313 µg/mL, the MIC (Saccharomyces cerevisiae [8]) was 0.008 µg/mL and the viability at 24 h, 128 ug/ml [9] was 64.5%. For the same molecule, the MIC (Saccharomyces cerevisiae [10]) was 0.0313 µg/mL, the MIC ([Candida] auris [11]) was 8 µg/mL (≈ 16.9 µM) and the Activity (Candida albicans [12]) was 57.3%. It also gave an MIC (Saccharomyces cerevisiae [13]) of 0.008 µg/mL.
